Data reported in PMC8577775, “Small molecule allosteric inhibitors of RORγt block Th17-dependent inflammation and associated gene expression in vivo” (PLoS ONE, 2021).

Experiments:
[1] = test system: KP/C pancreatic tumors in C57Bl/6 mice; experiment: In vivo tumor growth suppression, KP/C mouse model
Description: Pancreatic tumor chunks from KP/C mice [20] on C57Bl/6 background were inoculated subcutaneously in the flank of syngeneic mice. […] Tumor volumes and body weight were measured twice each week.
To test whether inhibition of RORγt can lead to tumor growth inhibition we utilized the Kras^G12D/+/Trp53^null/Pdx1-cre (KP/C) mouse model of pancreatic cancer [20]. C57Bl/6 mice were inoculated in the flank with KP/C tumor chunks and enrolled in the study when the average tumor volume reached 200 mm^3. […] To evaluate target engagement, we examined changes in expression of a subset of potential RORγt target genes in tumor samples.

[2] = test system: PDAC PDO model T020P; experiment: In vitro organoid growth assay (CellTiter-Glo 3D), T020P; format: cell-based, human; details: organoid growth assay, up to 30 μM
Description: (§1) Patient derived organoids were established as previously described. Briefly, PDX tumor chunks were minced then enzymatically digested into single cells by using a tumor dissociation Kit (Miltenyi, Cat# 130-095-929). Mouse and human cells were separated through magnetic separation, and isolated tumor cells were cultured on Matrigel-coated dishes. […]
(§2) Organoids were isolated and dissociated as described above. Cell numbers were counted by trypan blue exclusion and 5000 cells per well were plated on the Matrigel coated and pre-warmed 96-well plates. […] 100 μl of CellTiter-Glo® 3D reagent (Promega cat# G9682) was added to each well after desired time points and luminescence signal measured after 30 minutes.
(§3) Supplementary file pone.0248034.s010.tif: S6 Fig Schematic of Patient-derived organoids (PDO) growth & formation assays. […] After the indicated treatment schedule organoid growth or formation was assessed by CTG assay. […]

[3] = test system: PDAC PDO model T031P; experiment: In vitro organoid formation assay (CellTiter-Glo 3D); format: cell-based; details: Homo sapiens, T031P, treated 24 hr post-plating
Description: Patient derived organoids were established as previously described. Briefly, PDX tumor chunks were minced then enzymatically digested into single cells by using a tumor dissociation Kit (Miltenyi, Cat# 130-095-929). Mouse and human cells were separated through magnetic separation, and isolated tumor cells were cultured on Matrigel-coated dishes. Organoid cultures were maintained by growing on Matrigel in human complete maintenance media: Advanced DMEM/F12 media (Life Technology, Cat# 12634028), 10 mM HEPES (Life Technology, Cat# 15630–080), 1X Glutamax (Life Technology, Cat# 35050–061), 1X Antibiotic-Antimycotic (Life Technology, Cat# 15240–062), 10 mM Nicotinamide (Sigma-Aldrich, Cat# N0636-500G), 250 ng/mL R-Spondin-1 (Peprotech, Cat# 120–38), 100 ng/mL Noggin (Peprotech, Cat# 120-10C), 50 ng/mL EGF (Peprotech, Cat# AF-100-15), 100 ng/mL FGF10 (Peprotech, Cat# 100–26), […] (Sigma-Aldrich, Cat# G9020), 500 nM A83-01 (Sigma, Cat# SML0788), 20 μM Y-27632 (LC Laboratories, Cat# Y-5301), 1X B27 (Life Technology, Cat# 12587010), 10 ng/mL Wnt3a (R&D Systems, Cat# 5036-WN-010), 0.1% Methylcelluose (R&D Systems, Cat# HSC001) and Plasmocin (Invivogen, Cat# Ant-mpp) and were passaged every 10–14 days. Organoids were isolated from Matrigel (Corning, Cat# 08-774-406) in a cell recovery solution (Corning, Cat# CB-40253). Spheroid clusters were then dissociated into a single cell suspension with TrypLE (Gibco, Cat# 12605). […]
as §2, §3

[4] = test system: RORγt target genes in KP/C tumor samples; experiment: RORγt target gene expression in KP/C tumors (qPCR); format: in vivo, mouse
Description: For RNA isolation & gene expression, ears are collected on day 4 in RNAlater (Qiagen) and stored at 4°C until processed. Ears were homogenized using Procellys 24 homogenizer & hard tissue homogenizing beads (Bertin Instruments), 2 cycles of 30 seconds @ 6000 rpm in RLT lysis buffer according to manufacturer’s instructions. RNA was isolated using RNAeasy Plus MiniPrep columns (Qiagen) and cDNA generated using SuperScript VILO cDNA Synthesis kit (Invitrogen). Gene expression was quantified using TaqMan Fast Master Mix & and TaqMan FAM-MGB probe sets (Applied Biosystems): Gapdh, Mm99999915_g1, Il17a, Mm00439618_m1, Il17f, Mm00521423_m1, Il22, Mm01226722_g1 & Bclxl, Mm00437783_m1. QPCR reactions were run on QuantStudio 7 instrument. Relative quantification and fold changes were calculated using ddCT values against Gapdh and normalized to control-treated animals. For PDAC xenografts, RNA was isolated from tumor sections using Qiagen RNeasy kit (cat#74106), then cDNA was prepared using 2 μg of RNA and the high capacity RNA to cDNA kit (Applied Biosystems, cat#4387406) as per manufacturer’s instructions. Biomarker expression was determined using Taqman gene expression probes (S1 Table) and Universal master mix (ThermoFisher Scientific cat#4305719) with expression levels normalized to Gapdh. […]

[5] = test system: PDAC PDO model T031P; experiment: In vitro organoid growth assay (CellTiter-Glo 3D), T031P; format: cell-based, human; details: 30 μM, 120 hours of treatment
Description: as §1, §2, §3

For `O=C(O)[C@@H]1CCC(c2nn(C(=O)c3c(Cl)cccc3C(F)(F)F)c3cccc(F)c23)=C[C@H]1O` [Compound 3], the “tumor volume, combination with gemcitabine” value ([1]; Compound 3 30mg/kg BID plus gemcitabine vs gemcitabine) was “no additional benefit”, the tumor volume ([1]; single agent vs vehicle, 28 days of dosing) was “not statistically significant” and the “viability of T020P PDOs” value [2] was “did not decrease viability”. The IC50 ([3]; 120 hours) was 30 µM, the IC50 ([3]; 168 hours) was 10 µM and the “Klf7 and Osmr expression in tumors” value ([4]; all treatment groups (alone or with gemcitabine)) was “decreased in all treatment groups”. For the same molecule, the “Msi2 expression in tumors” value ([4]; combination of Compound 3 and gemcitabine) was “significant decrease” and the “decrease of organoid growth” value [5] was ~ 30%.
